Measured values taken from US12187785B2, “Recombinant protein and fragments thereof, method for producing said recombinant protein, synthetic gene and use of sculptin or recombinant protein for preparing a medicament or pharmaceutical composition for the prophylaxis and/or treatment of thromboembolic diseases or as a direct and specific …” (priority 2017, dated 2025).

Tests used:
[1] = biological target: T1, thrombin (Homo sapiens, UniProt P00734); settings: literature values; cited from earlier work
[2] = in plasma in healthy human volunteers; intravenously; cited from earlier work
[3] = biological target: T1, thrombin; test: Thrombin inhibition test of recombinant protein fragments generated by factor Xa; assay type: biochemical; design: Brown and cyan colors represent heavy and light chain of thrombin respectively; settings: fragment 100 pM, thrombin 0.1 nM, S-2238 15 μM
Procedure: Recombinant protein (10 μM) was incubated with or without factor Xa 1 μM in phosphate buffer 50 mM containing NaCl 150 mM, and phosphatidylserine and phosphatidylcholine 50 μM, pH 7.4 for 18 h at 37° C. (A) Reaction mixtures were split through reverse phase HPLC column C-18. (B) Gathered peaks (H1-H5) were subjected to MALDI-TOF MS and thrombin inhibition test (see table 1, for correspondent peptide sequence). (C) Typical progress curves for hydrolysis of chromogenic substrate S-2238 15 μM by thrombin 0.1 nM in absence (trace Ctrl) and presence of recombinant protein fragment 100 pM (traces H1 and H3) or preserved recombinant protein (trace Scpt) in phosphate buffer 50 mM containing NaCl 150 mM and 0.1% of PEG 6000, pH 7.4 at 37° C. (D) Percentage of thrombin inhibition by recombinant protein and fragments thereof. Reaction conditions of percentage of thrombin inhibition were obtained from (C).
In addition, recombinant protein was incubated with factor Xa for 18 h and resulting peptides were split by reverse phase chromatography (FIG. 6A). Peaks (named as H1, H2, H3 H4 and H5) were gathered and undergone to mass spectrometry MALDI-TOF (FIG. 6B). In accordance with analysis of mass spectrometry, H1 corresponds to average mass of 5153.57 Da, H2 corresponds to average mass of 3667.50 Da and 4582.40 Da and H3 corresponds to average mass of 8220.55 Da and 6770.60 Da. Similarly, H4 corresponds to average mass of 7299.61 Da and 12427.54 Da and H5 corresponds to 16990.90, 12427.54 Da and 11843.17 Da (FIG. 6B, Table 1). Further, fractions (H1, H2, H3 and H4) were undergone to test of thrombin inhibition (FIG. 6C). Fractions H1, H2, H3 and H4 retained thrombin inhibition activity of about 50%, 45%, 70% and 80% respectively, of preserved no hydrolyzed recombinant protein (FIG. 6D). Peak H5 had mainly preserved recombinant protein, thus it was not considered for test of thrombin inhibition.

Molecule | Inhibition Type [1] | Half-life [2] [min] | Ki [1] [nM] | thrombin inhibition activity retained, of preserved no hydrolyzed recombinant protein [3]
CC1CNc2c(cccc2S(=O)(=O)N[C@@H](CCCNC(=N)N)C(=O)N2CC[C@@H](C)C[C@@H]2C(=O)O)C1 (stereo partly drawn) [Argatroban] | No competing | 50 |  | 
Bivalirudin | No competing | 25 | 1.9 ± 2.6 | 
GKPQGHPHDALEARSDAVHTAVPKMPKGGHGGFEPIPIDYDERALEAR (Sculptin fragments generated by Xa factor) [H1, HPLC peak of recombinant protein hydrolyzed by factor Xa, average mass 5153.57 Da] |  |  |  | about 50%
H3: HPLC peak of factor Xa hydrolysate, masses 8220.55 and 6770.60 Da (SEQ ID NO: 13 and 14) (protein, Sculptin fragments generated by Xa factor) chain 1: SDAVHTAVPKMPKGGHGGFEPIPIDYDERALEARSDAVHTAVPKMPKGGHGGFEPIPIDYDERALHALEHHHHHH chain 2: SDAVHTAVPKMPKGGHGGFEPIPIDYDERALEARSDAVHTAVPKMPKGGHGGFEPIPIDYDER |  |  |  | ~70%
H4: HPLC peak of factor Xa hydrolysate, masses 7299.61 and 12427.54 Da (SEQ ID NO: 15 and 16) (protein, Sculptin fragments generated by Xa factor) chain 1: SDAVHTAVPKMPKGGHGGFEPIPIDYDERALEARSDAVHTAVPKMPKGGHGGFEPIPIDYDERALEAR chain 2: GKPQGHPHDALEARSDAVHTAVPKMPKGGHGGFEPIPIDYDERALEARSDAVHTAVPKMPKGGLGGFEPIPIDYDERALEARSDAVHTAVPKMPKGGHGGFEPIPIDYDERALEAR |  |  |  | ~80%
H2: HPLC peak of factor Xa hydrolysate, masses 3667.50 and 4582.40 Da (SEQ ID NO: 11 and 12) (protein, Sculptin fragments generated by Xa factor) chain 1: SDAVHTAVPKMPKGGHGGFEPIPIDYDERALEAR chain 2: SDAVHTAVPKMPKGGHGGFEPIPIDYDERALHALEHHHHHH |  |  |  | ~45%
